Experiment [1] deals with T1, Cyclooxygenase-2 (COX-2) (Ovis aries, UniProt P79208).
T1 sequence (P79208 17-603): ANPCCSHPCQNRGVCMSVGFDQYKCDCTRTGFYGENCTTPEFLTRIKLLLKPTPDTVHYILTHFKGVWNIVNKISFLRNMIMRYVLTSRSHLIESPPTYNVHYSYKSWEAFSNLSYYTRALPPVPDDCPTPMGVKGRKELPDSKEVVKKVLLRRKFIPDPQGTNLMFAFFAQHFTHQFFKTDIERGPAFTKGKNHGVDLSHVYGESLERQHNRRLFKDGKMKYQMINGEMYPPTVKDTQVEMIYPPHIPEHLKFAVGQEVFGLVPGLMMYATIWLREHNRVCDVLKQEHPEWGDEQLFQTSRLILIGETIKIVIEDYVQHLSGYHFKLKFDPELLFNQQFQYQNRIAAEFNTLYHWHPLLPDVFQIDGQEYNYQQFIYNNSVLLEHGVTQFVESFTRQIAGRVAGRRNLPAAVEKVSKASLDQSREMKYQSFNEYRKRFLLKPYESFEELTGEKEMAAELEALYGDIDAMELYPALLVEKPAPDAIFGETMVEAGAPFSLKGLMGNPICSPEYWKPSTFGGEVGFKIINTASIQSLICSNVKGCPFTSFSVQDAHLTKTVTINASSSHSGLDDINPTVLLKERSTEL
Description: purified enzyme, product formation and regioisomers by RP-HPLC-MS/MS. Type of experiment: biochemical.

The target of experiment [2] is T1, Cyclooxygenase-2 (COX-2). As to the kind of experiment: purified enzyme turnover, RP-HPLC-MS/MS. It is filed as biochemical.

Regarding `CC(=O)Oc1ccccc1C(=O)O` [ASA], in experiment [1], the “purified enzyme, product formation and regioisomers by RP-HPLC-MS/MS” value is “ASA increased the rate and extent of formation of OH-DPA (Fig. 3c) and shifted the distribution of hydroxy regioisomers”.

`CC/C=C\C/C=C\C/C=C\C/C=C\C/C=C\CCCCCC(=O)O` [DPA, (7Z,10Z,13Z,16Z,19Z)-docosapentaenoic acid]: in experiment [2], the “purified enzyme turnover, RP-HPLC-MS/MS” value was “purified ovine COX-2 generated the EFOX-D5 precursor, hydroxy-DPA (OH-DPA), from DPA”.

Source of the values: article PMC3077712 (2010).
